This note sets out measurements from patent US20130289014A1, “Combination therapy in treatment of oncological and fibrotic diseases” (BOEHRINGER INGELHEIM INTERNATIONAL GMBH, priority 2010, published 2013).

The subject of test [1] is Calu-6 xenografts (human NSCLC tumor cell line). In words: Calu-6 NSCLC subcutaneous xenograft, single agents and combination. The class given is in vivo, mice. The conditions noted are these: Calu-6, d40; large tumors, ca. 350 mm^3 at start of treatment. How it is done: In order to analyse the anti-tumor effects of combining the inhibition of tumor angiogenesis by interfering with the VEGFR signalling cascade with the antitumor activity of inhibiting Aurora kinase B, the following in vivo experiment is performed. Nude mice carrying established subcutaneous Calu-6 xenografts (human NSCLC tumor cell line) are randomized and treated with either the Aurora B kinase inhibitor of this invention Compound X or BIBF 1120 alone or with the combination of both drugs. After termination of treatment the tumors on the control treated mice (black line with circles in FIG. 1) are in average about 1100 mm^3 in volume.
FIG. 1: Calu-6 NSCLC model, combination BIBF 1120+Compound X, schedule (cf. Drawings; control group: line with circles; BIBF 1120 treated group: line with rhombs; Compound X (AKI) treated group: line with triangles; Combo BIBF 1120+Compound X (AKI) treated group: line with squares).

Test [2] relates to BxPC-3 pancreas adenocarcinoma. The test is described as follows: BxPC-3 pancreas adenocarcinoma subcutaneous xenograft. The settings on record: for T/C: BxPC-3. The class given is in vivo, mice. How it is done: (§1) BomTac:NMRI-Foxn1^nu mice were grafted subcutaneously with NCI-H460 non-small cell lung carcinoma (mutant KRAS, wild-type p53), HCT 116 colon carcinoma (mutant KRAS, wild-type p53) or BxPC-3 pancreas adenocarcinoma cells (wild-type KRAS, mutant p53). Treatment was initiated when the tumors had reached a volume of ˜50 mm^3. BI 811283 was injected intravenously once or twice weekly as a single bolus or b.i.d. Alternatively, the compound was administered once-weekly by a continuous 24 h infusion via subcutaneously implanted osmotic mini-pumps. Multiple dose levels and dosing schedules were evaluated.

The next test concerns MV-4; 11. In words: AML cancer model MV-4;11. In kind it is in vivo. The conditions noted are these: MV-4;11 AML model.
Test [3] concerns NCI-H460 cells. In words: Apoptosis: cleaved PARP Western blot and nuclear fragmentation of DAPI-stained cells. In kind it is cell-based, human. The conditions noted are these: NCI-H460, after 72 h and 96 h of treatment. How it is done: (§2) Compound X was profiled in enzymatic kinase assays as well as in proliferation assays on various human cancer cell lines. Cell cycle status was assessed by DNA content analysis (Cellomics ArrayScan, FACScalibur). Histone H3 phosphorylation was determined by immunofluorescence (Cellomics ArrayScan). Apoptosis was detected by Western blotting for cleaved PARP and microscopic enumeration of DAPI-stained cells showing nuclear fragmentation. Senescent cells were identified by staining for SA-β-Gal activity.
Background: In western blotting, separated proteins are transferred to a membrane and probed.

The subject of a further test is THP-1. In words: AML cancer model THP-1. In kind it is in vivo. The settings on record: THP-1 AML model.
Another test has as its target T1, Aurora C kinase (Homo sapiens, UniProt Q9UQB9).
T1 sequence (Q9UQB9 1-309): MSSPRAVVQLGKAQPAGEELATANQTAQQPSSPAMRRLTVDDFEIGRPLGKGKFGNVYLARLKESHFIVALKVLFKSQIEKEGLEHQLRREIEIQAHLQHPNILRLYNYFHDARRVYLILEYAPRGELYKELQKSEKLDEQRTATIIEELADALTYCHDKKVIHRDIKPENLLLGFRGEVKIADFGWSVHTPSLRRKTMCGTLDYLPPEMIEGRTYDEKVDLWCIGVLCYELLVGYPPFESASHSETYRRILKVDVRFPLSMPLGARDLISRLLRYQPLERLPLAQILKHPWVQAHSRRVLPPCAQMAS
The test is described as follows: Enzymatic kinase assay, Aurora C. The class given is biochemical. How it is done:
as §2

In test [4] the test system is NCI-H460 cells. The test is described as follows: Cell cycle status by DNA content analysis (polyploidy). In kind it is cell-based, human. The conditions noted are these: NCI-H460, within 48 h of treatment; increased from <5%. As to the method: as §2
The subject of the next test is HCT 116 colon carcinoma. The test is described as follows: HCT 116 colon carcinoma subcutaneous xenograft. In kind it is in vivo, mice. The conditions noted are these: for T/C: HCT 116. As to the method: as §1
In test [5] the test system is 46 additional kinases representative of the human kinome. In words: Panel of 46 additional kinases. The class given is biochemical. The conditions noted are these: Compound at 1000 nM. As to the method:
as §2

For the next test, the target named is T2, Aurora A kinase (Homo sapiens, UniProt O14965).
T2 sequence (O14965 1-403): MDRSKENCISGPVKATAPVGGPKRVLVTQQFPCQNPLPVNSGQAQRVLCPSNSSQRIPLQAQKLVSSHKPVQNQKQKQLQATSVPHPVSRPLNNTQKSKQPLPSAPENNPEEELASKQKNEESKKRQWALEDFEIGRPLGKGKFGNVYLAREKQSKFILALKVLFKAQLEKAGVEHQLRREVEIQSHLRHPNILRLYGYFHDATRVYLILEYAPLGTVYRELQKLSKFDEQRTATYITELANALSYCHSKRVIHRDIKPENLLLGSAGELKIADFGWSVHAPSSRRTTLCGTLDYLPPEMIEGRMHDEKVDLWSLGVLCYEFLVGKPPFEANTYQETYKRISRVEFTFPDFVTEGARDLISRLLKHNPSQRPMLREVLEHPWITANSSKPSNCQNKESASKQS
The test is described as follows: Enzymatic kinase assay, Aurora A. The class given is biochemical. How it is done: as §2

In a further test the test system is human cancer cell lines. In words: Proliferation assays on human cancer cell lines. The class given is cell-based. The settings on record: >20 human cancer cell lines; read-out: EC50 for inhibition of proliferation. How it is done:
as §2

The test system of test [6] is NCI-H460 cells. In words: Senescence by SA-β-Gal staining. The settings on record: NCI-H460, within 96 h; from <3%. In kind it is cell-based, human. As to the method:
as §2

For a further test, the target named is human Aurora B kinase (Homo sapiens, UniProt Q96GD4). In words: Enzymatic kinase assay, Aurora B. In kind it is biochemical. As to the method:
as §2

Test [7] deals with NCI-H460 non-small cell lung carcinoma. In words: NCI-H460 non-small cell lung carcinoma subcutaneous xenograft. The class given is in vivo, mice. The conditions noted are these: for T/C: NCI-H460. As to the method:
as §1

The subject of test [8] is histone H3 phosphorylation in NCI-H460 cells. The test is described as follows: Histone H3 phosphorylation by immunofluorescence (Cellomics ArrayScan). The class given is cell-based, human. How it is done:
as §2

[9] abbreviates: 15 BID mg/kg, weekly dose 60 mg/kg, (qdx2)x6, i.v.

As a reminder, the T/C is the ratio of treated to control. For orientation: IC50 means the concentration that gives 50% inhibition. High values mean weaker potency, low ones greater potency.

A value given as a limit tells only on which side of the number the result lay.

Chain of human Aurora B kinase (Q96GD4 whole entry): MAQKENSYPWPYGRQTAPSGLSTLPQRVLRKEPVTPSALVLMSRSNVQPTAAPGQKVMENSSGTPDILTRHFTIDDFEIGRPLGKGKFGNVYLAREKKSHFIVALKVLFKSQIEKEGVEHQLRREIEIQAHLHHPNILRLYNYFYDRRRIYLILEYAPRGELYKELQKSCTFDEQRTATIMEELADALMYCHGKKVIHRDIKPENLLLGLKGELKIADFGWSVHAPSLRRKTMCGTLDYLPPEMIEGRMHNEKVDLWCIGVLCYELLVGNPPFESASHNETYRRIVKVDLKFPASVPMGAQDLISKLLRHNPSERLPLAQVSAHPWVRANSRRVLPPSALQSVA

As to `COC(=O)c1ccc2c(c1)NC(=O)/C2=C(\Nc1ccc(N(C)C(=O)CN2CCN(C)CC2)cc1)c1ccccc1` [BIBF 1120, 3-Z-[1-(4-(N-((4-methyl-piperazin-1-yl)-methylcarbonyl)-N-methyl-amino)-anilino)-1-phenyl-methylene]-6-methoxycarbonyl-2-indolinone], in test [1], the “median T/C value” was found to be 50%.
On to `CC(C)NC(=O)[C@H]1CCC[C@H]1Nc1nc(Nc2ccc(C(=O)N(C)C3CCN(C)CC3)cc2)ncc1C(F)(F)F` [Compound X], for which the T/C in [2] (20 mg/kg, weekly dose 20 mg/kg, (q7d)x4, 24 h cont. inf.) amounted to 6%; in test [2] (setting [9]) it was 17%; with HCT 116 colon carcinoma (20 mg/kg, weekly dose 20 mg/kg, (q7d)x5, 24 h cont. inf.) it was 2%; in the test with HCT 116 colon carcinoma (30 mg/kg, weekly dose 60 mg/kg, (qdx2)x6, i.v.), 25%; in the test on HCT 116 colon carcinoma (setting [9]) it was 4%; in the test with HCT 116 colon carcinoma (37.5 BID mg/kg, weekly dose 75 mg/kg, (q7d)x6, i.v.), 8%. For the same compound, the T/C in test [7] (20 mg/kg, weekly dose 20 mg/kg, (q7d)x3, 24 h cont. inf.) was determined as 8%; in test [7] (15 BID mg/kg, weekly dose 60 mg/kg, (qdx2)x3, i.v.) it was 27%. For the same compound, the “effect on tumor growth” value was “dose-dependent inhibition of tumor growth or tumor regression” in [2] (pancreas carcinoma model, multiple cycles, total weekly doses of 20 to 75 mg/kg); “dose-dependent inhibition of tumor growth or tumor regression” in the test with HCT 116 colon carcinoma (colon carcinoma model, multiple cycles, total weekly doses of 20 to 75 mg/kg); “dose-dependent inhibition of tumor growth or tumor regression” in [7] (non-small cell lung cancer model, multiple cycles, total weekly doses of 20 to 75 mg/kg). For the same compound, the T/C value with MV-4; 11 turned out to be 5%; with THP-1, 7%. In the test with NCI-H460 cells [3], the “cleaved poly (ADP-ribose) polymerase” value is listed as “An increase of cleaved poly (ADP-ribose) polymerase”. The “fraction of cells with nuclear fragmentation” value in the test on NCI-H460 cells [3] (from <1%) is recorded as 7%. Besides, the figures for the half-inhibitory concentration (IC50) at Aurora C kinase, on Aurora A kinase and against human Aurora B kinase were 17 nM, 70 nM and 9 nM, respectively. Moreover, in the test with NCI-H460 cells [4], the “fraction of polyploid cells” value is more than 80%. Also, the “effect on large tumors” value in the test on HCT 116 colon carcinoma (HCT 116, large tumors (350 mm^3)) was “regression of large tumors (350 mm^3) was induced”. In addition, in the test on HCT 116 colon carcinoma (HCT 116 tumors), the “histological examination of tumors” value was “accumulation of enlarged, multinucleated cells”. Further, the “phosphorylation of histone H3 in tumors (biomarker analysis)” value in the test on HCT 116 colon carcinoma (HCT 116 tumors, therapeutic doses) was “inhibited phosphorylation of histone H3”. Further, the “kinases inhibited by more than 50%” value in test [5] is on record as 7/46. Besides, in test [1], the “median T/C value” turned out to be 45%. For the same compound, the EC50 in the test on human cancer cell lines is 2 to 14 nM. Besides, in the test on NCI-H460 cells [6], the “senescent cells, fraction of the population” value was determined as 25%. Also, the “time to inhibition of histone H3 phosphorylation” value in test [8] is less than 1 h.
